In US20240101576A1, “HETEROCYCLIC INHIBITORS OF EGFR AND/OR HER2, FOR USE IN THE TREATMENT OF CANCER” (Scorpion Therapeutics, Inc., priority 2020, published 2024):

Legend:
Assay type in all cases: cell-based
EGFR WT (Ba/F3 cells) = target: T1, EGFR WT (Ba/F3 cells) (Homo sapiens, UniProt P00533); test: Inhibitor activity on EGFR-dependent cell growth (CellTiter-Glo, 72 h), Ba/F3 EGFR WT; settings: read-out: BaF3 WT IC50
T1 construct: expressed in transfected cells; host or cells: Ba/F3 (murine pro-B cells), retroviral transduction, puromycin selection, maintained with EGF
Procedure, shortened: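 This growth assay used Ba/F3 cells that depend on wild-type EGFR and are kept in EGF without IL3. Compounds were made up as 10 mM DMSO stocks and diluted 3-fold over 10 points. 120 nL went onto 600 cells/well. After 72 hours, 40 μL CellTiter-Glo was added and luminescence read on EnVision after 30 min.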

[1] = target: T2, EGFR exon 20 SVD Ins D770_N771 (Ba/F3 cells) (Homo sapiens, UniProt P00533, INS770SVD); test: Inhibitor activity on EGFR-dependent cell growth (CellTiter-Glo, 72 h), Ba/F3 EGFR exon 20 SVD Ins; settings: read-out: BaF3 SVD IC50
T2 construct: expressed in transfected cells; host or cells: Ba/F3 (murine pro-B cells), retroviral transduction, puromycin selection, IL3-independent pool
Procedure, shortened: (§1)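 IC50s derive from a sigmoidal dose–response fit of CellTiter-Glo signal. The signal was normalised between […]-treated cells and cell-free medium. Ba/F3 mutant-EGFR cells, seeded at 400–800/well depending on the line, had 72 h of exposure to a 10-point, 3-fold compound series.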

EGFR (CUTO14 cells) = EGFR (CUTO14 cells) (Homo sapiens, UniProt P00533); test: Inhibitor activity on EGFR phosphorylation (pEGFR AlphaLISA, 2 h), CUTO14 cells
Excerpt: Example B. Inhibitor Activity on EGFR phosphorylation (pEGFR)
EGFR mutant Ba/F3 cells were generated by transduction with retrovirus containing vectors expressing EGFR L858R, EGFR exon 19del, EGFR L858R/C797S, EGFR exon 20 NPG Ins D770_N771, EGFR exon 20 ASV Ins V769_D770, or EGFR exon 20 SVD Ins D770_N771 genes along with a puromycin selection marker. Transduced cells are selected with puromycin for 7 days and are then be transferred into culture media without Interleukin 3 (IL3). Surviving cells are confirmed to express EGFR by Western blot and maintained as a pool. CUTO14 cells were obtained from Dr. Robert C. Doebele at the University of Colorado. The IC50 date are included in Table 6 and Table 7.
(§2) 1.1 Cells are harvested from flask into cell culture medium and the cell number counted.
1.2 Cells are diluted with culture medium to the desired density and 40 μL of cell suspension is added into each well of 384-well cell culture plate and the seeding density is 50K cells/well (Ba/F3) or 12.5K cells/well (CUTO14).
(§3) 2 Compound Preparation and Treatment
(§4) 2.1 Test compounds are dissolved to 10 mM in a DMSO stock solution. 45 μL of stock solution is transferred to a 384 polypropylene plate (pp-plate). Perform 3-fold, 10-point dilution via transferring 15 μL compound into 30 μL DMSO using a TECAN (EVO200) liquid handler.
(§5) 2.2 Spin plates at room temperature at 1,000 RPM for 1 minute.
2.3 Transfer 5 nL of diluted compound from compound source plate into the cell plate.
2.4 After compound treatment for 2 hours, perform pEGFR detection by AlphaLISA for compound treatment plates as described in “Detection” section.
3 Detection by pEGFR AlphaLISA (Perkin-Elmer)
3.1 Plates are removed from incubators and equilibrated at room temperature for 10 minutes, and media was removed
3.2 10 μL of lysis buffer is added and plates shaken at 600 rpm for 1 hr.
3.3 Prepare acceptor mix just before use and dispense 5 μL of acceptor mix to all the wells. Shake 350 rpm for Ihr in the dark
3.4 Prepare donor mix under low light conditions prior to use. Dispense 5 μL of donor mix to all the wells. Mix well on the shaker, seal and wrap in aluminum foil and incubate 1.5 hrs at room temperature in the dark
3.5 Transfer 18.5 μL mixture to OptiPlate 384, and read using an Envision. The IC50 date were included in Table 6 and Table 7.

[2] = target: T3, EGFR exon 20 ASV Ins V769_D770 (Ba/F3 cells) (Homo sapiens, UniProt P00533, INS769ASV); test: Inhibitor activity on EGFR-dependent cell growth (CellTiter-Glo, 72 h), Ba/F3 EGFR exon 20 ASV Ins; settings: read-out: BaF3 ASV IC50
T3 construct: expressed in transfected cells; host or cells: Ba/F3 (murine pro-B cells), retroviral transduction, puromycin selection, IL3-independent pool
Procedure, shortened: as §1

[3] = target: T4, EGFR exon 20 NPG Ins D770_N771 (Ba/F3 cells) (Homo sapiens, UniProt P00533, INS770NPG); test: Inhibitor activity on EGFR-dependent cell growth (CellTiter-Glo, 72 h), Ba/F3 EGFR exon 20 NPG Ins; settings: read-out: BaF3 NPG IC50
T4 construct: expressed in transfected cells; host or cells: Ba/F3 (murine pro-B cells), retroviral transduction, puromycin selection, IL3-independent pool
Procedure, shortened: as §1

[4] = target: T5, EGFR exon 20 FQEA Ins A763_V764 (Ba/F3 cells) (Homo sapiens, UniProt P00533, INS763FQEA); test: Inhibitor activity on EGFR-dependent cell growth (CellTiter-Glo, 72 h), Ba/F3 EGFR exon 20 FQEA Ins; settings: read-out: BaF3 FQEA IC50
T5 construct: expressed in transfected cells; host or cells: Ba/F3 (murine pro-B cells), retroviral transduction, puromycin selection, IL3-independent pool
Procedure, shortened: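 Steps: seed Ba/F3 EGFR-mutant pools (800 cells/well FQEA and exon 19del; 600 L858R/C797S; 400 L858R). Add 120 nL of serially diluted compound and incubate 72 h. Equilibrate to room temperature, add CellTiter-Glo and read after 30 min. Fit IC50.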

[5] = target: EGFR exon 19del (Ba/F3 cells) (Homo sapiens, UniProt P00533); test: Inhibitor activity on EGFR-dependent cell growth (CellTiter-Glo, 72 h), Ba/F3 EGFR exon 19del; settings: Ba/F3 EGFR exon 19del cell growth, read-out: BaF3 Del19 IC50
Excerpt: (§6) Example A. Inhibitor Activity on EGFR-Dependent Cell Growth
(§7) Cell lines are generated by transducing Ba/F3 cells with retroviruses containing vectors with EGFR WT, EGFR L858R, EGFR exon 19del, EGFR L858R/C797S, EGFR exon 20 NPG Ins D770_N771, EGFR exon 20 ASV Ins V769_D770, EGFR exon 20 SVD Ins D770_N771, or EGFR exon 20 FQEA Ins A763_V764 genes and a puromycin selection marker. Transduced cells are selected with puromycin for 7 days and are then be transferred into culture media without Interleukin 3 (IL3). EGFR WT cells are maintained with supplemental EGF. Surviving cells are confirmed to express EGFR by Western blot and maintained as a pool. The IC50 date were included in Table 6 and Table 7.
as §2
(§8) 1.2 Cells are diluted with culture medium to the desired density and 40 μL of cell suspension is added into each well of 384-well cell culture plate and the seeding density is 800 (FQEA, exon 19del), 600 (WT, NPG, L858R/C797S), or 400 (ASV, SVD, L858R) cells/well.
as §3, §4, §5
(§9) 2.3 Transfer 120 nL of diluted compound from compound source plate into the cell plate.
(§10) 2.4 After compound treatment for 72 hours, perform CTG detection for compound treatment plates as described in “Detection” section.
(§11) 3.1 Plates are removed from incubators and equilibrated at room temperature for 15 minutes.
(§12) 3.2 Thaw the CellTiter Glo reagents and allow to equilibrate to room temperature before the experiment.
(§13) 3.3 Add 40 μL of CellTiter-Glo reagent into each well (at 1:1 to culture medium). Then place the plates at room temperature for 30 min followed by reading on EnVision.
(§14) 4.1 Inhibition activity is calculated following the formula below:
(§15) % Inhibition=100×(LumHC−LumSample)/(LumHC−LumLC) • where HC is obtained from cells treated with 0.1% DMSO only; and LC is obtained from culture medium only.
(§16) 4.2 2. Calculate the IC50 by fitting the Curve using Xlfit (v5.3.1.3), equation 201.
(§17) Y=Bottom+(Top−Bottom)/(1+10^((Log IC50−X)*HillSlope))

EGFR L858R (Ba/F3 cells) = target: T6, EGFR L858R (Ba/F3 cells) (Homo sapiens, UniProt P00533, L858R); test: Inhibitor activity on EGFR-dependent cell growth (CellTiter-Glo, 72 h), Ba/F3 EGFR L858R; settings: read-out: BaF3 L858R IC50
T6 construct: expressed in transfected cells; host or cells: Ba/F3 (murine pro-B cells), retroviral transduction, puromycin selection, IL3-independent pool
Excerpt: as §6, §7, §2, §8, §3, §4, §5, §9, §10, §11, §12, §13, §14, §15, §16, §17

[6] = target: T4, EGFR exon 20 NPG Ins D770_N771 (Ba/F3 cells); test: Inhibitor activity on EGFR phosphorylation (pEGFR AlphaLISA, 2 h), Ba/F3 EGFR exon 20 NPG Ins
Procedure, shortened: (§18)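 IL3-independent Ba/F3 cells transduced with mutant EGFR (50K/well) or CUTO14 cells (12.5K/well) were treated 2 h with 10-point, 3-fold compound dilutions. Phospho-EGFR in lysates was measured by AlphaLISA to derive IC50.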

[7] = target: T3, EGFR exon 20 ASV Ins V769_D770 (Ba/F3 cells); test: Inhibitor activity on EGFR phosphorylation (pEGFR AlphaLISA, 2 h), Ba/F3 EGFR exon 20 ASV Ins; settings: EGFR phosphorylation, AlphaLISA, 2 hours; read-out: ASV IC50 (pEGFR)
Procedure, shortened: as §18

T3 sequence (P00533 with tags, fused parts or gaps INS769ASV): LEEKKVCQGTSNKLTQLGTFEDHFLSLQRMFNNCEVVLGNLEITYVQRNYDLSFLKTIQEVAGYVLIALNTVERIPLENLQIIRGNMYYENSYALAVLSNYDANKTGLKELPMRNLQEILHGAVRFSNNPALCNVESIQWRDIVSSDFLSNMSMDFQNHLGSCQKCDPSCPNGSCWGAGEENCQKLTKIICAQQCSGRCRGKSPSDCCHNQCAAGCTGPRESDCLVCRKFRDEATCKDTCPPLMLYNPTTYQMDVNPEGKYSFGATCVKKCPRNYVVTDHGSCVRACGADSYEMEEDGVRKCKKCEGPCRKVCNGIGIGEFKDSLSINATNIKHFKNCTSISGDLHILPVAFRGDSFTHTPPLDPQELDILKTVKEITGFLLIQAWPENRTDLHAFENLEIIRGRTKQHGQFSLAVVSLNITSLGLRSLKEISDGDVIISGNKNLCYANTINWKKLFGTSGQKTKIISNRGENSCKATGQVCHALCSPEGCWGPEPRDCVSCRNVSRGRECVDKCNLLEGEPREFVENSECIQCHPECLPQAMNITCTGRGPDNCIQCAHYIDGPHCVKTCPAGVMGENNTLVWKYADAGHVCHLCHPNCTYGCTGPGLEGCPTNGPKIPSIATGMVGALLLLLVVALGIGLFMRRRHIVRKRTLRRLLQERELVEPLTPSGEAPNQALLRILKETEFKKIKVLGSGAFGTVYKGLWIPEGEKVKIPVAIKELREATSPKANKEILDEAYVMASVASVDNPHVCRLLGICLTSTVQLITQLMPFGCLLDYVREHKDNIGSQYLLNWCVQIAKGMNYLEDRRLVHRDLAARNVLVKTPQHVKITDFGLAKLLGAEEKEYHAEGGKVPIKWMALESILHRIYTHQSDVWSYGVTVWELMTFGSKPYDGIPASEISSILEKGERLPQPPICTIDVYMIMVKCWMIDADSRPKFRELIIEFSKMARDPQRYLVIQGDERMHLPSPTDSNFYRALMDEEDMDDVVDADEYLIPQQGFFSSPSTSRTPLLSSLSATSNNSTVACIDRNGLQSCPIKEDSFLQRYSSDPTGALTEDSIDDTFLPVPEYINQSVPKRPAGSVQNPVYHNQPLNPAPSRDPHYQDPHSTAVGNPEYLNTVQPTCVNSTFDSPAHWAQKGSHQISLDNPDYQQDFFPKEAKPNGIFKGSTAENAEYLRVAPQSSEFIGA
Sequence of EGFR (CUTO14 cells) (P00533 with tags, fused parts or gaps DUP767-769): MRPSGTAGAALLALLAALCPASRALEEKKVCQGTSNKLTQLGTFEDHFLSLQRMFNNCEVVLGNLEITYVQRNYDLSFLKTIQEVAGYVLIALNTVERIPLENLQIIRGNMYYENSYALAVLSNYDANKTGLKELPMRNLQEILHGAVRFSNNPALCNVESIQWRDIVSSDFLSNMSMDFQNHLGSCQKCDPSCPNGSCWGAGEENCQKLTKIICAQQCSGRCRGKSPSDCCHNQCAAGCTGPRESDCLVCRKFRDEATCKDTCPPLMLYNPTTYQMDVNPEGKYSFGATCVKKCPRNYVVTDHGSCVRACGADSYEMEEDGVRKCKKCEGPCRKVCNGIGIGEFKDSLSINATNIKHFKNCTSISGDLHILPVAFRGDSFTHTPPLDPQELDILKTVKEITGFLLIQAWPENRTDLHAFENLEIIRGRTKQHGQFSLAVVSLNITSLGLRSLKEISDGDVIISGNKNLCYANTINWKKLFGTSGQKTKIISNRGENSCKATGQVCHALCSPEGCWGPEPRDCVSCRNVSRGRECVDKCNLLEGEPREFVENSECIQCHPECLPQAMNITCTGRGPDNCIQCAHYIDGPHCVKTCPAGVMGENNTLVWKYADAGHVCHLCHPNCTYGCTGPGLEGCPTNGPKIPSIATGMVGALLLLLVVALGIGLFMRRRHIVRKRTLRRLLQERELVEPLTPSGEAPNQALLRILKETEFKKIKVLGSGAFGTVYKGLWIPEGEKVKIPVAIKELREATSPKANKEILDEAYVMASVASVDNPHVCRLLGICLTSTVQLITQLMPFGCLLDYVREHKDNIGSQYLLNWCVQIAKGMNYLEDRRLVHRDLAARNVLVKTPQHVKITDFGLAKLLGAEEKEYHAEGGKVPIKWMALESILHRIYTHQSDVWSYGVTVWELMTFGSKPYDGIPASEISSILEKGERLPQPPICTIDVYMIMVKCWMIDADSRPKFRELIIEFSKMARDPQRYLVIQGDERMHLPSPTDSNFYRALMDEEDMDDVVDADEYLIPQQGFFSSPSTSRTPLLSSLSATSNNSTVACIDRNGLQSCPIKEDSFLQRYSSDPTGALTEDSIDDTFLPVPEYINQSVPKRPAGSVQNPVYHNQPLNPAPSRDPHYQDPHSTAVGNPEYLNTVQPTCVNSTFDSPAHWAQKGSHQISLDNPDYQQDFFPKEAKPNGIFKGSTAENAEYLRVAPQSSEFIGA
T1 sequence (P00533 25-1210): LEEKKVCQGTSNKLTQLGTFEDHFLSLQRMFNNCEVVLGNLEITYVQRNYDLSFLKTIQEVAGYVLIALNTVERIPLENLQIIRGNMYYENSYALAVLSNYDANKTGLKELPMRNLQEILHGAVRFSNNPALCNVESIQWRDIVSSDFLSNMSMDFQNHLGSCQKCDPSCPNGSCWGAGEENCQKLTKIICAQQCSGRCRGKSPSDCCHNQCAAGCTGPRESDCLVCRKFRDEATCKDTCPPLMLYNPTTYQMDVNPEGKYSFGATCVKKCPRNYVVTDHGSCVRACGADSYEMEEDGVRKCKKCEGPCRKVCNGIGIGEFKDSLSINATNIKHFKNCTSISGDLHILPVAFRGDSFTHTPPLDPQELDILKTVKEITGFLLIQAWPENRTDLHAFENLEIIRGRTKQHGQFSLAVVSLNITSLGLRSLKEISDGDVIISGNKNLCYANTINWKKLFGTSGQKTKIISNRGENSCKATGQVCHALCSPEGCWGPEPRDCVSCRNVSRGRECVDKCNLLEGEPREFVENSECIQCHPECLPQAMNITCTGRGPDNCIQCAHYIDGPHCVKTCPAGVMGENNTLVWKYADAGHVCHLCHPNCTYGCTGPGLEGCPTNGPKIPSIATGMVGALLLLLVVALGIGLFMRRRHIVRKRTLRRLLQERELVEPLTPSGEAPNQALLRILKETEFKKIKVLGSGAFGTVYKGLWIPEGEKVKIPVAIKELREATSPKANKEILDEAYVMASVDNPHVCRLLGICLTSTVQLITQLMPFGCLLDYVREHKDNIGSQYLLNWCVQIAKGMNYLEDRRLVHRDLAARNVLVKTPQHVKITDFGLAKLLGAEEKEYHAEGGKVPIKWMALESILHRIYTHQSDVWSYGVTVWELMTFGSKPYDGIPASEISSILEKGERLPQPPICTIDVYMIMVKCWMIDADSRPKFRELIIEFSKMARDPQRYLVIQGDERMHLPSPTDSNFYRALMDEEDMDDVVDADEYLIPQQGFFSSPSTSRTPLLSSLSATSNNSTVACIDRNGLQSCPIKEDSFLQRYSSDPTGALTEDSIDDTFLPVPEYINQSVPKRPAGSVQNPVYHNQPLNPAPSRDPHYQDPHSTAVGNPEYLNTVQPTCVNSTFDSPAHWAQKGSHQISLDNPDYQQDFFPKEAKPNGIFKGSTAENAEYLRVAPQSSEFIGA
T2 sequence (P00533 with tags, fused parts or gaps INS770SVD): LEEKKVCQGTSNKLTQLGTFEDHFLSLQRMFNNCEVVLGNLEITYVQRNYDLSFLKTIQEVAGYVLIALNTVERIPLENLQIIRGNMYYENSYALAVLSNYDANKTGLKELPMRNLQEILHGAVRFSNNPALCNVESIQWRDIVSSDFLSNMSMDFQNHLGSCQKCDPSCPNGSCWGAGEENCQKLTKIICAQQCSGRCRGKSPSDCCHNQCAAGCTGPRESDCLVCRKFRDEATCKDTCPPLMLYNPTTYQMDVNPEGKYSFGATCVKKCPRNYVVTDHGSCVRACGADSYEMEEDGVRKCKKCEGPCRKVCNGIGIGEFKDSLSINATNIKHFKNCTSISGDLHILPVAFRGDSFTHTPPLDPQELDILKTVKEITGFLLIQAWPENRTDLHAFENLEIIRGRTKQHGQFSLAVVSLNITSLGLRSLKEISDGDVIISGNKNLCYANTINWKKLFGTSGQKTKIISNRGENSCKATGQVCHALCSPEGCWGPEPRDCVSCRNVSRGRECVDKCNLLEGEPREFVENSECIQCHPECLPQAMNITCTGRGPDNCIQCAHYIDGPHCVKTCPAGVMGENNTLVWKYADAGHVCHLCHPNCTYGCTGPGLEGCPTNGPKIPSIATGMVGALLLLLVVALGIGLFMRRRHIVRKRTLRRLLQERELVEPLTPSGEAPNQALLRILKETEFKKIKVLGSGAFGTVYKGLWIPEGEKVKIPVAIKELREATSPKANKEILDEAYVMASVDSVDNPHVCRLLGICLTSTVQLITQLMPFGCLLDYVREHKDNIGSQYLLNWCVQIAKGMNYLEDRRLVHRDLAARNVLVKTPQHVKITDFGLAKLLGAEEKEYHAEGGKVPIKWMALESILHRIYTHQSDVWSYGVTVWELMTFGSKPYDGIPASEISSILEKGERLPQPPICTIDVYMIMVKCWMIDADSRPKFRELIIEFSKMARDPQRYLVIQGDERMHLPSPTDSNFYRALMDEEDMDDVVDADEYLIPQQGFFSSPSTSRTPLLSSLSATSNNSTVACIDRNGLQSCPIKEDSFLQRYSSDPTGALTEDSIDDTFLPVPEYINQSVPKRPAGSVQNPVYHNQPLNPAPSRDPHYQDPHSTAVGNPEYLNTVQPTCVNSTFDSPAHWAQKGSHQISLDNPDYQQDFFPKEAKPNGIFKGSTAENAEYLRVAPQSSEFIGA

| IC50 (EGFR WT (Ba/F3 cells)) [nM] | IC50 [1] [nM] | IC50 (EGFR (CUTO14 cells)) [nM] | IC50 [2] [nM] | IC50 [3] [nM] | IC50 [4] [nM] | IC50 [5] [nM] | IC50 (EGFR L858R (Ba/F3 cells)) [nM] | IC50 [6] [nM] | IC50 [7] [nM] | Compound |
| --- | --- | --- | --- | --- | --- | --- | --- | --- | --- | --- |
| 100 to 1000 | < 100 | < 100 | < 100 | < 100 |  |  |  |  |  | COc1c(Cl)cccc1Nc1c(-c2ccncc2F)[nH]c2c1C(=O)NCC2C[C@@H]1CO[C@@H](CN(C)C)CO1 (single isomer, unassigned) [Compound 562, (7R*)-3-[(3-chloro-2-methoxyphenyl)amino]-7-{[(2R,5S)-5-[(dimethylamino)methyl]-1,4-dioxan-2-yl]methyl}-2-(3-fluoropyridin-4-yl)-1H,5H,6H,7H-pyrrolo[3,2-c]pyridin-4-one] |
| > 1000 | > 1000 | < 100 | > 1000 | > 1000 |  |  |  |  |  | COc1c(Cl)cccc1Nc1c(-c2ccncc2)[nH]c2c1C(=O)NCC2C[C@@H]1CN(C)CCO1 (single isomer, unassigned) [Compound 646] |
| > 1000 |  | < 100 |  | < 100 |  |  |  |  |  | COc1c(Cl)cccc1Nc1c(-c2ccnc(C)n2)[nH]c2c1C(=O)NC[C@@H]2C[C@@H]1COCCO1 [Compound 552, (7S)-3-[(3-chloro-2-methoxyphenyl)amino]-7-[(2R)-1,4-dioxan-2-ylmethyl]-2-(2-methylpyrimidin-4-yl)-1H,5H,6H,7H-pyrrolo[3,2-c]pyridin-4-one] |
| > 1000 | < 100 | < 100 | < 100 | < 100 |  |  |  |  |  | COc1c(Cl)cccc1Nc1c(-c2ccncc2)[nH]c2c1C(=O)NC[C@H]2C[C@@H]1CN(C)CCO1 [Compound 645, (7R)-3-[(3-chloro-2-methoxyphenyl)amino]-7-{[(2R)-4-methylmorpholin-2-yl]methyl}-2-(pyridin-4-yl)-1H,5H,6H,7H-pyrrolo[3,2-c]pyridin-4-one] |
| 100 to 1000 | < 100 |  | < 100 | 100 to 1000 | < 100 | < 100 | < 100 | < 100 | < 100 | COc1c(Cl)cccc1Nc1c(-c2ccnc3[nH]cnc23)[nH]c2c1C(=O)NCC2 [compound 290] |
| 100 to 1000 | < 100 | < 100 | < 100 | < 100 |  |  |  |  |  | COc1c(Cl)cccc1Nc1c(-c2ccnc(Nc3cnn(C)n3)n2)[nH]c2c1C(=O)NCC2 [compound 592, 3-[(3-chloro-2-methoxyphenyl)amino]-2-{2-[(2-methyl-1,2,3-triazol-4-yl)amino]pyrimidin-4-yl}-1H,5H,6H,7H-pyrrolo[3,2-c]pyridin-4-one] |
| 100 to 1000 | < 100 | < 100 | < 100 | < 100 |  |  |  |  |  | COc1c(F)cccc1Nc1c(-c2ccnc(Nc3cnn(C)n3)n2)[nH]c2c1C(=O)NCC2 [compound 593, 3-[(3-fluoro-2-methoxyphenyl)amino]-2-{2-[(2-methyl-1,2,3-triazol-4-yl)amino]pyrimidin-4-yl}-1H,5H,6H,7H-pyrrolo[3,2-c]pyridin-4-one] |
| 100 to 1000 | < 100 | < 100 | < 100 | < 100 |  |  |  |  |  | C=CC(=O)N1CCC2(CC1)CNC(=O)c1c2[nH]c(-c2ccncc2F)c1Nc1cc(F)cc(F)c1OC [compound 610] |
| 100 to 1000 | < 100 | < 100 | < 100 | < 100 |  |  |  |  |  | C=CC(=O)N1CCC2(CC1)CNC(=O)c1c2[nH]c(-c2ccncn2)c1Nc1cc(F)cc(F)c1OC [compound 612] |
| 100 to 1000 | < 100 | < 100 | < 100 | < 100 |  |  |  |  |  | C=CC(=O)N1CCC2(CC1)CNC(=O)c1c2[nH]c(-c2ccnc(C)n2)c1Nc1cc(F)cc(F)c1OC [compound 641] |
| < 100 | < 100 | < 100 | < 100 | < 100 |  |  |  |  |  | C=CC(=O)N1CCC2(CC1)CNC(=O)c1c2[nH]c(-c2ccnc(C)n2)c1Nc1cccc(Cl)c1OC [compound 643] |
